pIC50: −log10 of the molar value.

By melting point is commonly meant the temperature of the solid-liquid transition.

The target of data set [1] is T1, FAAH (Fatty Acid Amide Hydrolase) (Mus musculus, UniProt O08914).
T1 construct: The membrane homogenates are prepared extemporaneously by homogenizing the tissues; from tissue; host or cells: mouse brain (minus the cerebellum), membrane homogenate
T1 sequence (O08914 1-579): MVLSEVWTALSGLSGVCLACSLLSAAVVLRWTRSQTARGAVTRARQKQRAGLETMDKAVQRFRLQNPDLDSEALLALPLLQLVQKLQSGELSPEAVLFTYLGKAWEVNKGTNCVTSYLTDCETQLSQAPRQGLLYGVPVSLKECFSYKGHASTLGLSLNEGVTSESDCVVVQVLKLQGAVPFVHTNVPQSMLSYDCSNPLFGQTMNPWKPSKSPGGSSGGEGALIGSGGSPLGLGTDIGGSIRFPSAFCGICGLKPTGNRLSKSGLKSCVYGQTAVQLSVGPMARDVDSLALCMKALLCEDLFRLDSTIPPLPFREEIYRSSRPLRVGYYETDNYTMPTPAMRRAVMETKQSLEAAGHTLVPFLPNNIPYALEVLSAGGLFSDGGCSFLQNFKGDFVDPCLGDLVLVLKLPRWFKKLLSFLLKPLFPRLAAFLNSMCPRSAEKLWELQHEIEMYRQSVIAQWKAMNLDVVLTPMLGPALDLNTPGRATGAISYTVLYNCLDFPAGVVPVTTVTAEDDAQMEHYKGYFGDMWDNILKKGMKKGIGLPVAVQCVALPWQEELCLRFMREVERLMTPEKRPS
In words: radioenzymatic test, hydrolysis of anandamide [ethanolamine 1-3H] with FAAH (protocol 1). It is filed as biochemical. Particulars: mouse brain membrane homogenate, anandamide 10 μM, 20 min preincubation at 25° C., read-out: IC50 (concentration that inhibits 50% of the control enzymatic activity of FAAH). Here is the method: (§1) The compounds of the invention underwent pharmacological tests to determine their inhibitory effect on the enzyme FAAH (Fatty Acid Amide Hydrolase).
Thus, mouse brains (minus the cerebellum) are removed and stored at −80° C. The membrane homogenates are prepared extemporaneously by homogenizing the tissues using a Precellys® machine in reaction buffer (10 mM Tris-HCl, pH=8, 150 mM NaCl and 1 mM ethylenediaminetetraacetic acid (EDTA)). The enzymatic reaction is performed in 96-well Multiscreen filtration plates in a final volume of 70 μl. Reaction buffer supplemented with fatty acid-free bovine serum albumin (BSA, 1 mg/ml) is used for the enzymatic reaction and the dilution of the compounds and of the anandamide [ethanolamine 1-^3H]. The reaction buffer containing BSA (43 μl/well), the diluted test compounds at various concentrations (7 μl/well containing 1% DMSO) and the membrane preparation (10 μl/well, i.e. 200 μg of tissue per test) are successively added to the wells. After preincubation for 20 minutes of the compounds with the enzyme at 25° C., the reaction is started by adding anandamide [ethanolamine 1-^3H](specific activity of 15-20 Ci/mmol) diluted with cold anandamide (10 μl/well, final concentration of 10 μM, 0.01 μCi per test). After incubation for 20 minutes at 25° C., the enzymatic reaction is stopped by adding a 5M solution of activated carbon prepared in 1.5M NaCl buffer and 0.5M HCl (50 μl/well). The mixture is stirred for 10 minutes then the aqueous phase containing the ethanolamine [1-^3H] is recovered by filtration under vacuum and counted by liquid scintillation.

For data set [2], the target named is T1, FAAH (Fatty Acid Amide Hydrolase). Briefly: fluorescent enzymatic test, hydrolysis of AAMC with FAAH (protocol 2). The format is biochemical. Particulars: mouse brain homogenate, AAMC 10 μM, 40 min at 37° C., read-out: IC50 (concentration that inhibits 50% of the control enzymatic activity of FAAH). How it is done: as §1
Thus, mouse brains (minus the cerebellum) are withdrawn and stored at −80° C. The brain homogenates are prepared extemporaneously by homogenizing the tissues using a Precellys® machine in reaction buffer (10 mM Tris-HCl, pH=8, 150 mM NaCl and 1 mM ethylenediamine-tetraacetic acid (EDTA)). The enzymatic reaction is performed in black polystyrene 384-well plates in a final volume of 50 μL. Reaction buffer supplemented with fatty acid-free bovine serum albumin (BSA, 1 mg/ml) is used for the enzymatic reaction, the dilution of the compounds and the dilution of the AAMC. Reaction buffer containing the BSA (25 μl/well), the diluted test compounds at various concentrations (5 μl/well containing 1% DMSO) and the membrane preparation (10 μL/well, i.e. 200 μg of tissue per test) are successively added to the wells. After preincubation for 20 minutes of the compounds with the enzyme at 25° C., the reaction is started by adding 10 μL of substrate per well (AAMC, final concentration of 10 μM). After incubation for 40 minutes at 37° C., the aminomethyl coumarin (AMC) produced is measured by fluorescent counting (Envision plate reader).

Regarding `CNC(=O)c1cc(COC(=O)NCC[C@@H]2C[C@@H]3CN(c4ccc(Br)cn4)C[C@@H]3C2)on1` [Compound No. 10, [3-(methylcarbamoyl)isoxazol-5-yl]methyl {2-[(3aR,5r,6aS)-2-(5-bromopyrid-2-yl)octahydrocyclopenta[c]-pyrrol-5-yl]ethyl}carbamate (endo)], the melting point is 157 to 159 °C. The pIC50 in data set [1] is 8.62. Consider `Cn1cc(-c2ccc(N3CC4CC(CNC(=O)OCc5cscn5)CC4C3)nc2)cn1` [compound 4, thiazol-4-ylmethyl ({(3aR,5s,6aS)-2-[5-(1-methyl-1H-pyrazol-4-yl)pyrid-2-yl]octahydrocyclopenta[c]pyrrol-5-yl}methyl)carbamate (exo)], for which, in data set [1], the pIC50 is 8.07.

The compound `Cn1ncnc1COC(=O)NC[C@H]1C[C@@H]2CN(c3cccc(-c4cncc(F)c4)n3)C[C@@H]2C1` [Compound No. 8, (1-methyl-1H-1,2,4-triazol-5-yl)methyl {[(3aR,5s,6aS)-2-(5′-fluoro-2,3′-bipyrid-6-yl)octahydrocyclopenta[c]-pyrrol-5-yl]methyl}carbamate (exo)] came in with a melting point of 136 to 138 °C. The pIC50 in data set [1] is 8.96. As to `Cn1ncnc1COC(=O)NC[C@H]1C[C@@H]2CN(c3ccc(-c4ccc(F)cc4)cn3)C[C@@H]2C1` [compound 7, (1-methyl-1H-1,2,4-triazol-5-yl)methyl ({(3aR,5s,6aS)-2-[5-(4-fluorophenyl)pyrid-2-yl]octahydrocyclopenta[c]-pyrrol-5-yl}methyl)carbamate (exo)], in data set [1], the pIC50 was 6.77. Compound `O=C(NC[C@H]1C[C@@H]2CN(c3ccc(-c4ccc(F)cc4)cn3)C[C@@H]2C1)OCc1cscn1` [Compound No. 3, thiazol-4-ylmethyl ({(3aR,5s,6aS)-2-[5-(4-fluoro-phenyl)pyrid-2-yl]octahydrocyclopenta[c]pyrrol-5-yl}-methyl)carbamate (exo)] displayed a melting point of 129 to 131 °C. The pIC50 in data set [1] is 9.01.

Take `O=C(NC[C@H]1C[C@@H]2CN(c3cccc(C(F)(F)F)n3)C[C@@H]2C1)OCc1cscn1` [Compound No. 1, thiazol-4-ylmethyl ({(3aR,5s,6aS)-2-[6-(trifluoro-methyl)pyrid-2-yl]octahydrocyclopenta[c]pyrrol-5-yl}methyl)carbamate (exo)]: the pIC50 in data set [1] is 6.70. In the case of `CNC(=O)c1cc(COC(=O)NC2C3CN(c4ccc5cc(F)ccc5n4)CC32)on1` (centres unmarked) [Compound No. 14, [3-(methylcarbamoyl)isoxazol-5-yl]methyl [3-(6-fluoro-quinolin-2-yl)-3-azabicyclo[3.1.0]hex-6-yl]carbamate], the melting point was 220 to 222 °C. The pIC50 in data set [2] is 7.92.

(Values after patent US8865738B2, “5-membered heterocyclic compound cyclopenta[C]pyrrolylalkylcarbamate derivatives, preparation thereof, and therapeutic use thereof” (Sanofi, priority 2009, dated 2014).)
